Data published in patent US8410094B2, “Amide compounds, their pharmaceutical compositions, their preparation method and their uses” (Shanghai Institute of Materia Medica, Chinese Academy of …, priority 2008, dated 2013).
Read-outs that look alike come from different tables or passages of the source.

Assays:
CCR5 = molecular target: T1, CCR5 (Homo sapiens, UniProt P51681); assay: Inhibition of CCR5: [35S]GTPγS binding assays (filtration, SPA-WGA) and calcium influx assay, 10 nM RANTES, CHO-CCR5; type: biochemical; conditions: for IC50: inhibition of GTPγS binding induced by 10 nM RANTES, CHO-CCR5; for inhibition against CCR5 (class symbol in IC50 column): class by inhibition at 30 nM or 300 nM
T1 construct: expressed in transfected cells
Method: CCR5 belongs to G-Protein-Coupled Receptor (GPCR) family. The developing technology of GPCR-based drugs have been well-developed, among them, the experimental techniques such as ligand-receptor binding assay, GTPγS binding assay and Ca^2+ flux assay have been widely used in drug-screening related to chemokine receptors. The inhibitory activities of the compounds according to the present invention against CCR5 are measured by three methods, i.e., [^35S]GTPγS filter binding assay, SPA-WGA-based [^35S]GTPγS binding assay and calcium influx assay. At the same time, the antiviral activities in cell of the compounds according to the present invention are evaluated by using two kinds HIV-1 subtypes: H4DA5 cell model and PBMC system virus replication model.
A. [^35S]GTPγS Binding Assay
After binding with an agonist, CCR5 experiences a conformation change such that CCR5 interacts with G protein so as to active the G protein. G protein is a tripolymer composed of α-subunit and βγ-subunit. Since the ability of α-subunit binding to GTP depends on the interaction of CCR5 with the agonist, the ability of an agonist for activating CCR5 can be reflected by determining the amount of GTP binding to α-subunit. In a GTPγS binding assay, a ^35S-labeled GTP analogue GTPγS, which can bind with an activated α-subunit without being hydrolyzed, is used to replace GTP in order for eliminating the defect that the amount of GTP binding to G protein can not exactly reflect the activation of CCR5 due to the hydrolysis of GTO by GTPase and for convenience of detection. So, α-subunit binds with GDP when CCR5 is not activated, and after the activation of CCR5, α-subunit binds with GTPγS such that GTPγS irreversible binds to α-subunit. Therefore, the amount of [^35S]-GTPγS binding to α-subunit could reflect the level of CCR5 activated by an agonist. The ability of the agonist for activating CCR5 will decrease when an antagonist is added.
Such experiment has been referred to as GTPγS filtration assay in which [^35S]-GTPγS bound with the free G protein could be separated by membrane filtration.
Alternatively, SPA (Scintillation Proximity Assay) technique can be used to detect the [^35S]-GTPγS bound to G protein, which is called SPA-WGA-based [35S]GTPγS binding assay. The principle of SPA technique is as follows. Sub-atomic particles released during the decay of radioactive atoms, for example β-ray (electron), can excite microspheres at a sufficiently close distance to emit light so as to be detected by a Scintillation Counter. In an aqueous solution, most of the energy of these rays is absorbed by the solvent, and the traveling distance of these rays is limited.
The activation of G protein by CCR5 is determined by the following experiments.
CHO (Chinese hamster ovary cell) permanent cell line expressing CCR5 (CHO-CCR5) (a cell line constructed by Shanghai Targetdrug Ltd.) was lysed with a lysis buffer (5 mM Tris-HCl, pH 7.5, 5 mM EDTA and 5 mM EGTA) and then centrifugated at 15,000×g for 10 min to obtain cell membrane. After the cell membrane was resuspended in a reaction buffer (5 mM Tris-HCl, pH 7.5, 5 mM MgCl2, 1 mM EGTA, 100 mM NaCl), the protein concentration was determined using Bioford Protein Assay Kit manufactured by Bio-Rad Laboratories Inc. Subsequently, GTPγS binding assay was performed in the reaction buffer, wherein the reaction system was 100 μL containing 10 μg membrane protein, 40 μM GDP and 0.5 nM [^35S]-GTPγS (1200 Ci/mmol). After the compound to be tested (the compound was first dissolved in DMSO and then diluted in gradient with the reaction buffer according to the specific situation, wherein the final concentration of DMSO was 1% (v/v) in the whole reaction system) was added and shaken to mix homogeneously, the reaction tube was incubated at 30° C. for 1 hour. After the reaction finished, the tube was placed on ice, and the reaction mixture was diluted with PBS to quench the reaction and filtered under reduced pressure with a GF/C filter membrane. […]

HIV-1 NL(AD8) virus = assay: H4DA5 cell model of virus replication (β-galactosidase reporter); type: cell-based; conditions: for IC50: read-out: IC50 (nM) H4DA5 cell model; for inhibitory activity EC50 level in H4DA5 cell model: stated in words
Method: 2. Results of Activity Assay at Cellular Level • 2.1 H4DA5 Cell Model (The Operation was Performed Under P3 Experimental Conditions) • (1) H4DA5 cells: Hela cells expressing human CD4, CCR5 receptor and reporting gene Ltr-lacZ; • (2) Appropriate amounts of H4DA5 cells were plated in 96-well plate and cultured overnight; • (3) The compound to be tested and HIV-1 NL(AD8) virus were added; • (4) Incubation for 3 days (in cell incubator at 37° C.); • (5) Virus replication was determined using β-galactosidase test kit.

HIV-1 Ba-L virus = assay: PBMC system of virus replication model (p24 antigen); type: cell-based; conditions: for IC50: read-out: IC50 (nM) PBMC system of virus replication model
Method: 2.2 PBMC System of Virus Replication Model (The Operation was Performed Under P3 Experimental Conditions) • (1) PBMC cells were separated from the blood from two people (using Ficoll gradient separation method); • (2) the PBMC cells were stimulated using PHA and incubated for 3 days in a cell incubator at 37° C. at a density of 2×10^6 cells/ml. • (3) PBMC cells were resuspended in a RF-10 medium (RF-10/IL2) containing 100 U/mL IL-2 (30 uL RF-10/IL2 medium containing 4 times of the final concentration of the compound to be tested and 40 uL RF-10/IL2 medium containing HIV-1 Ba-L virus (1400 pfu/well) were added in the plate (200,000 cells/50 uL/well). • (4) After incubated 24 hours, RF-10/IL2 medium containing 1 time of the final concentration of the compound to be test was added in each well. After infected for 4 days, 100 ul fresh RF-10/IL2 medium containing the compound to be tested at the final concentration to replace the original medium. After incubated for 2 days, the supernatant of each well was collected, and the content of p24 was determined. • (5) The content of P24 antigen in the supernatant of each well was measured by Vironostik p24 test kit to detect the virus replication.

[1] = Human immunodeficiency virus 1, 72 h

T1 sequence (P51681 whole entry): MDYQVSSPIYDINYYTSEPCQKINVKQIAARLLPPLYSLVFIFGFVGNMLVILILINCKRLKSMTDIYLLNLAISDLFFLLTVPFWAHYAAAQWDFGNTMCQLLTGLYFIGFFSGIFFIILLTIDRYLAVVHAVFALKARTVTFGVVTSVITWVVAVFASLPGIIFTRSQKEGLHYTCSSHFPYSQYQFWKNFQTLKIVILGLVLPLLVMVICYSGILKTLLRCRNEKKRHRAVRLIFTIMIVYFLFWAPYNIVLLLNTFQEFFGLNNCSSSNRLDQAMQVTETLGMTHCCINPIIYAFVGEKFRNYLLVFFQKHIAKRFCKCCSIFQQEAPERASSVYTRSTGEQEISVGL

| Compound | IC50 (CCR5) | IC50 (HIV-1 NL(AD8) virus; [1]) | inhibitory activity EC50 level in H4DA5 cell model (HIV-1 NL(AD8) virus) | inhibition against CCR5 (class symbol in IC50 column) (CCR5) | further results |
| --- | --- | --- | --- | --- | --- |
| CC(=O)N1CCC(C(=O)N(CCCN2[C@@H]3CC[C@H]2C[C@H](NC(=O)OCc2ccccc2)C3)c2ccc(C)c(Cl)c2)CC1 [Compound 8, 1-acetyl-N-(3-chloro-4-methylphenyl)-N-(3-(3-exo-benzyloxymethanamido-8-azabicyclo[3.2.1]oct-8-yl)propyl)-4-piperidinylcarboxamide] | 18.3 nM | 220 nM | 100 nM level | – | – |
| CC(=O)N1CCC(C(=O)N(CCCN2[C@@H]3CC[C@H]2C[C@H](NS(=O)(=O)c2ccc(C)cc2)C3)c2ccc(C)c(Cl)c2)CC1 [Compound 9b, 1-acetyl-N-(3-chloro-4-methylphenyl)-N-(3-(3-exo-p-tolylsulfonamido-8-azabicyclo[3.2.1]oct-8-yl)propyl)-4-piperidinylcarboxamide] | 6 nM | 1 nM | nM level | – | IC50 (HIV-1 Ba-L virus; Human immunodeficiency virus 1, BAL, PBMC): 0.42 nM; inhibitory activity EC50 level in PBMC system of virus replication model (HIV-1 Ba-L virus; stated in words): nM level |
| Cc1ccc(S(=O)(=O)NC2CC3CCC(C2)N3CCCN(C(=O)OCc2ccccc2)c2ccc(C)c(Cl)c2)cc1 (stereo not drawn) [Compound 15c, 3-chloro-4-methylphenyl(3-(3-exo-(4-toluenesulfonamido)-8-azabicyclo[3.2.1]oct-8-yl)propyl)carbamic acid benzyl ester] | – | – | – | ++ (the compound at 300 nM has an inhibition against CCR5 of more thant 50% at 300 nM) | – |
| Cc1ccc(S(=O)(=O)NC2CC3CCC(C2)N3CCCN(C(=O)Nc2ccccc2)c2ccc(C)c(Cl)c2)cc1 (stereo not shown) [Compound 15d] | – | – | – | ++ (the compound at 300 nM has an inhibition against CCR5 of more thant 50% at 300 nM) | – |
| Cc1ccc(S(=O)(=O)NC2CC3CCC(C2)N3CCCN(c2ccc(C)c(Cl)c2)S(=O)(=O)c2ccc(C)cc2)cc1 (stereo not drawn) [Compound 15e, N-(3-chloro-4-methylphenyl)-4-methyl-N-(3-(3-exo-(4-tolylsulfonamido)-8-azabicyclo[3.2.1]oct-8-yl)propyl)phenylsulfonamide] | – | – | – | ++ (the compound at 300 nM has an inhibition against CCR5 of more thant 50% at 300 nM) | – |
| Maraviroc [reference compound] | – | – | – | – | IC50 (HIV-1 NL(AD8) virus; Hela cells expressing human CD4, CCR5 and Ltr-lacZ, HIV-1 NL(AD8), 3 days): 1.5 nM; IC50 (HIV-1 Ba-L virus; PHA-stimulated PBMC, HIV-1 Ba-L, p24): 0.35 nM |
